Results: patent US7364719B2, “Vasoregulating compounds and methods of their use” (The United States of America as represented by the …, priority 2002, dated 2008)
Bridges are numbered along the chain shown (N, C = ends). Where no end group is shown, it is not given here.

How the values were obtained:
[1] = test system: anesthetized rats; conditions: Watanabe et al. 1996; cited from earlier work
[2] = test system: Male 10-week-old Lewis/ssncr rats; test: Blood pressure measurements in rats after intravenous peptide injection; format: in vivo, rat
Procedure: Blood pressure measurements. Male 10-week-old Lewis/ssncr rats (SAIC, Frederic, Md.) were anesthetized with 3% halothane, intubated, and maintained with 1% halothane in 70% nitrous oxide and 30% oxygen (VMS Anesthesia Machine, Matrx, Medical Inc., Orchard Park, N.Y.) at 82 strokes/minute. Rectal temperature was monitored through the experiment. A PE50 catheter was placed on the right femoral artery and arterial blood pressure was recorded through a P23XL transducer (Grass Instruments, Quincy, Mass.). Peptides were injected into the right femoral vein through another catheter. To confirm that changes in blood pressure were not an artifact of the anesthesia, the experiments were repeated in conscious animals. After catheters were placed under anesthesia, the animals were allowed to recover for 24-48 hours before taking blood pressure measurements. All procedures were performed under a protocol approved by the National Institutes of Health.

[3] = test system: blood pressure; conditions: Kitamura et al. 2001; cited from earlier work
[4] = test system: hypertensive SHR rats; test: Arterial blood pressure in hypertensive SHR rats after IP MMP-2 inhibitor; format: in vivo, rat; conditions: 5 mg IP
[5] = molecular target: T1, AM receptor in Rat2 cells (Rattus norvegicus, UniProt Q63118); test: Measurement of cAMP response in Rat2 cells (radioimmunoassay); format: cell-based; conditions: for intracellular elevation of cAMP: peptides applied 5 minutes, versus PBS control
T1 construct: Rat2 is a fibroblast cell line that contains a well characterized AM receptor; host or cells: Rat2 rat fibroblast cell line
Procedure: Measurement of cAMP response. The rat fibroblast cell line Rat2 was obtained from the American Tissue Culture Collection (Manassas, Va.) and kept in RPMI-1640 medium supplemented with 10% fetal calf serum (Invitrogen). Accumulation of intracellular cAMP was measured as described (Pío et al., J. Biol. Chem. 276:12292-12300, 2001). Cells were seeded in 24-well plates at 2×10^4 cells/well and incubated at 37° C. in 5% CO2 until they reached 80% confluency. Before the assay, cells were incubated for 15 minutes in TIS medium (RPMI-1640 plus 10 μg/ml transferrin, 10 μg/ml insulin, and 50 nM sodium selenite) containing 1% bovine serum albumin, 1 mg/ml bacitracin, and 100 μM isobutylmethylxanthine. Peptides were applied in the same medium for 5 minutes at the indicated concentrations in a volume of 250 μl. The reaction was terminated by adding an equal volume of ice-cold ethanol. cAMP contents were measured using the Biotrac cAMP radioimmunoassay (Amersham).
To determine if AM peptide fragments elicit their hypotensive and hypertensive effects via the AM receptor, their cAMP response in fibroblasts was examined.

[6] = molecular target: T2, Human recombinant MMP-2 (Homo sapiens, UniProt P08253); test: Digestion reactions with MMP-2 (gel, HPLC); format: biochemical; conditions: low salt collagenase buffer, absence of factor H
T2 construct: made in house
T2 sequence (P08253 110-660): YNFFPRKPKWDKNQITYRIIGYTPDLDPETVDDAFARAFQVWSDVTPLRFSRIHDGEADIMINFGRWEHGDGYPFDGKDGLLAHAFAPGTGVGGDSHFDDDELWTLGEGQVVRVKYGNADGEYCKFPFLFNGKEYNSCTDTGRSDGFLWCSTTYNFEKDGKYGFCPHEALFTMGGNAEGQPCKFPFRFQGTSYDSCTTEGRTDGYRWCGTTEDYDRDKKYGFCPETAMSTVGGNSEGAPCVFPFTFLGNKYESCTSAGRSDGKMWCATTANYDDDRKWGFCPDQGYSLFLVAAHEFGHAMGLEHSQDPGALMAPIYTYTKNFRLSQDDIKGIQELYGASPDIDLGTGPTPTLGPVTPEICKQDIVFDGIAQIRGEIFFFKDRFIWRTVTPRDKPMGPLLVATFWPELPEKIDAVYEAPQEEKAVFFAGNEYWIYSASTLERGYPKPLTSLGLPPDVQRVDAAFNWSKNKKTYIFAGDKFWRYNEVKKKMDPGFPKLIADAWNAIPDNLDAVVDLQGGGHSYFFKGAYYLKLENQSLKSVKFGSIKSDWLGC
Procedure: (§1) Digestion reactions. Synthetic AM (240 μg/reaction) was exposed to 11.5 μg MMP-2 or MMP-9 in low salt collagenase buffer (50 mM Tris, pH 7.5, 50 mM NaCl, 0.02% Brig) for different periods of time in the presence or absence of 6 mg factor H. These amounts correspond to an approximate molar ratio of 1:250:250 (enzyme:AM:factor H). The reaction was stopped with EDTA. Digestion reactions were run in 16% Tricine gels (Invitrogen, Carlsbad, Calif.) under reducing conditions and stained with Gel Code Blue Stain Reagent (Pierce, Rockford, Ill.).
High performance liquid chromatography (HPLC). Digestion reactions were also loaded into an analytical reverse phase R2H 5×100 mm HPLC column (Poros, Applied Biosystems, Foster City, Calif.) in a 10-60% acetonitrile gradient over 10 minutes and the protein peaks eluted from the column were detected with a wavelength of 230 nm.

[7] = molecular target: T3, Human recombinant MMP-9 (Homo sapiens, UniProt P14780); test: Digestion reactions with MMP-9 (gel); format: biochemical; conditions: low salt collagenase buffer
T3 construct: made in house
Procedure: as §1

[8] = anesthetized rats, injection into femoral vein

T1 sequence (Q63118 23-464 limits assumed): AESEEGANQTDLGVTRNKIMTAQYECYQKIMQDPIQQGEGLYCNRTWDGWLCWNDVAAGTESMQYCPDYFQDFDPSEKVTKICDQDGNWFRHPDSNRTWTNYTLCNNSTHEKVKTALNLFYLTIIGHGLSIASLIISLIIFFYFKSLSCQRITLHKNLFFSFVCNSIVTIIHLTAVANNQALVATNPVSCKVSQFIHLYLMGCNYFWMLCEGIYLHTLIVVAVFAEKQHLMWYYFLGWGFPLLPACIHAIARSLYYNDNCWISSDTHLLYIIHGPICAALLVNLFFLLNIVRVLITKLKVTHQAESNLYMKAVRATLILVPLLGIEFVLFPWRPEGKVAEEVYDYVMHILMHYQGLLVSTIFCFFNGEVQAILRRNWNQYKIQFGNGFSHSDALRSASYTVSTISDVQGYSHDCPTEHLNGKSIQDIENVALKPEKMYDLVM
T1 sequence (Q9JHJ1 46-182 partner): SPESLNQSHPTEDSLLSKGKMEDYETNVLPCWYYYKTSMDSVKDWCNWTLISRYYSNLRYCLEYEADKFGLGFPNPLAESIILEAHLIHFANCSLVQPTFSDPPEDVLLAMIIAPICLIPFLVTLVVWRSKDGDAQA
T3 sequence (P14780 94-707): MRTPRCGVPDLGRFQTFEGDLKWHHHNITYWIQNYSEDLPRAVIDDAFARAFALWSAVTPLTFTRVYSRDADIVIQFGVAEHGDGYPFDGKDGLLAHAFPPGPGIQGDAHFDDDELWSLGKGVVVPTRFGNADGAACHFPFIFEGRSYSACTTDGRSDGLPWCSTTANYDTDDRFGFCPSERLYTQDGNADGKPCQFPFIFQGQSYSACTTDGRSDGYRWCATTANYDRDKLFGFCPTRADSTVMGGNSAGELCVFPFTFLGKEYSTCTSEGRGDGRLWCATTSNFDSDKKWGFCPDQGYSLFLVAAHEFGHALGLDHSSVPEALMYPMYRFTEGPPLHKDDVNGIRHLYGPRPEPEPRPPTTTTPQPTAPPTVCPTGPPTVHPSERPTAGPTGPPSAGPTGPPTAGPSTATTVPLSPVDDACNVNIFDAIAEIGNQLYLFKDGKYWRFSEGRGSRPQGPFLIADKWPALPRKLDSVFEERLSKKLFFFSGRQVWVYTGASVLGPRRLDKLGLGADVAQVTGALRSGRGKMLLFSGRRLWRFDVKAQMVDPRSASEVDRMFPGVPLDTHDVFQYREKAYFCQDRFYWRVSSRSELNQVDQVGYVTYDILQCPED

acetyl-AM-(16-36)-NH2: synthetic N-terminal AM fragment (Watanabe et al.) (Ac-CRFGTCTVQKLAHQIYQFTDK-NH2; ends and bridges not checked; UniProt P35318 110-130, looked up, fragment)
vasoactivity (vasodepressor or vasopressor) [1]: vasopressor activity

AM-(1-21)-NH2: synthetic N-terminal AM fragment (Watanabe et al.) (YRQSMNNFQGLRSFGCRFGTC-NH2; ends and bridges not checked; UniProt P35318 95-115, looked up, fragment)
vasoactivity (vasodepressor or vasopressor) [1]: vasopressor activity

acetyl-AM-(16-21)-NH2: synthetic N-terminal AM fragment (Watanabe et al.) (Ac-CRFGTC-NH2; ends and bridges not checked; UniProt P35318 110-115, looked up, fragment)
vasoactivity (vasodepressor or vasopressor) [1]: vasopressor activity

AM(29-52): AM fragment generated by MMP-2 digestion; retains only the terminal amide; synthesized (QIYQFTDKDKDNVAPRSKISPQGY-NH2; UniProt P35318 123-146, looked up, fragment)
effect on blood pressure [2, 8]: do not have any discernible effect

AM-(1-25)-OH: synthetic N-terminal AM fragment (Watanabe et al.) (YRQSMNNFQGLRSFGCRFGTCTVQK-OH; ends and bridges not checked; UniProt P35318 95-119, looked up, fragment)
vasoactivity (vasodepressor or vasopressor) [1]: vasopressor activity

AM(11-26): AM fragment purified from bovine adrenal medulla (Kitamura et al.) (LRSFGCRFGTCTVQKL; ends and bridges not checked; cysteine pairing not given here; UniProt P35318 105-120, looked up, fragment)
duration of elevation in blood pressure [3]: about 70 seconds | vasopressor activity [3]: induced vasopressor activity

CNC(=O)[C@H](Cc1ccccc1)NC(=O)[C@H](CC(C)C)[C@H](CSc1cccs1)C(=O)NO [BB-94, Batimastat]
drop in blood pressure [4]: about 80 mm of Hg | time after injection at which blood pressure dropped [4]: 20 min | time blood pressure remained at the reduced level [4]: at least 2.5 hours

AM(11-52): AM fragment generated by MMP-2 digestion; maintains intramolecular ring structure and α-amide; synthesized (LRSFGCRFGTCTVQKLAHQIYQFTDKDKDNVAPRSKISPQGY-NH2; disulfide 6-11 (inferred); UniProt P35318 105-146, looked up, fragment)
effect on blood pressure [2, 8]: induced hypotension | intracellular elevation of cAMP [5]: equal to the one induced by the intact AM molecule

AM(23-52): AM fragment generated by MMP-2 digestion; retains only the terminal amide; synthesized (VQKLAHQIYQFTDKDKDNVAPRSKISPQGY-NH2; UniProt P35318 117-146, looked up, fragment)
effect on blood pressure [2, 8]: do not have any discernible effect

AM-(1-31)-NH2: synthetic N-terminal AM fragment (Watanabe et al.) (YRQSMNNFQGLRSFGCRFGTCTVQKLAHQIY-NH2; ends and bridges not checked; UniProt P35318 95-125, looked up, fragment)
vasoactivity (vasodepressor or vasopressor) [1]: vasopressor activity

AM(11-22): peptide consisting of amino acids 11-22 of adrenomedullin (LRSFGCRFGTCT; PEPTIDE (1)..(12) Active peptide AM(11-22), corresponding to positions 11-22 of adrenomedullin (SEQ ID NO 3) and positions 105-116 of preproadrenomedullin (SEQ ID NO 2).; listed as Homo sapiens)
vasopressor effect over basal levels ([2]; anesthetized rats, injection into femoral vein, n=5): 71±24 mm Hg | duration of activity ([2]; vasoconstrictor activity in rats): on the order of hours | effect on cAMP response elicited by intact AM (1-52) ([5]; different (increasing) concentrations of peptide added with AM): did not affect the response

AM(11-28): AM fragment generated by MMP-2 digestion; has the loop but not the carboxy end; synthesized (LRSFGCRFGTCTVQKLAH; disulfide 6-11 (inferred); UniProt P35318 105-122, looked up, fragment)
effect on blood pressure [2, 8]: do not have any discernible effect

AM(8-52): AM fragment generated by MMP-2 digestion; maintains intramolecular ring structure and α-amide; synthesized (FQGLRSFGCRFGTCTVQKLAHQIYQFTDKDKDNVAPRSKISPQGY-NH2; disulfide 9-14 (inferred); UniProt P35318 102-146, looked up, fragment)
effect on blood pressure [2, 8]: induced hypotension | intracellular elevation of cAMP [5]: equal to the one induced by the intact AM molecule

adrenomedullin [AM]
reduction of blood pressure (hypotension) ([2]; anesthetized rats, injection into femoral vein, n=5, untreated systolic 125±10 mm Hg): 55±5 mm Hg | intracellular elevation of cAMP [5]: significant elevation of cAMP | degradation by MMP-2 [6]: rapidly cleaves | degradation by MMP-9 [7]: resistance

AM-(1-25)-NH2: synthetic N-terminal AM fragment (Watanabe et al.) (YRQSMNNFQGLRSFGCRFGTCTVQK-NH2; ends and bridges not checked; UniProt P35318 95-119, looked up, fragment)
vasoactivity (vasodepressor or vasopressor) [1]: vasodepressor activity
